Values quoted from earlier work, collected in US10881127B1, “Manufacturing method of water-solubilized solution of mastic resin” (VENN SKINCARE, INC., priority 2019, dated 2021).

Conditions: in room temperature or in water

stability of L-ascorbic acid: easily oxidized and broken
Structure (SMILES): O=C1O[C@H]([C@@H](O)CO)C(O)=C1O [L-ascorbic acid]
